How the values were obtained:
[1] = test system: learning and memory of mice, scopolamine-induced amnesia; assay: Conditioned passive avoidance response (CPAR), step down method, in model of amnesia induced by scopolamine and undertraining; format: in vivo; conditions: for Number of animals with CPAR (%): male mice; for effect on learning and memory during scopolamine-induced amnesia: mice, i/p before or immediately after training, tested after 2 hours and 24 hours
Excerpt: In order to study the activity of the synthesized compounds in vivo one of the most used methodologies of examination and assessment of activation of cognitive functions was used—improvement or easier development of conditioned passive avoidance response (CPAR) in animals. From the time of study of cognitive properties of nootropil and up to the present time, conditioned passive avoidance response (CPAR) is used more often than other behavioral procedures for studying and screening of drugs affecting the processes of learning and memory in rodents. CPAR is used for studying the action of drugs on learning (if the tested drug is administered before a training session), on saving or retention in memory (if the drug is administered after the training) and on memory retrieval (administering drugs before memory testing). This method is also used to study and test substances in models of disorders of learning and memory, caused by experimental brain dysfunction (GABA, cholinergic, induced by cholinergic toxin AF64A), alcohol-benzodiazepine induced, electrocution induced, hypoxia induced and age-related amnesias, inhibition of protein synthesis, etc..
Comparative study of the effects of compounds 1 and 2 on learning and memory of mice in tests of conditioned passive avoidance response (CPAR) in model of amnesia, induced by the administration of scopolamine—a blocker of central cholinergic receptors.
Studies were performed using 470 male mice, body mass 20-22 g, using 20 animals for one dose. CPAR conditioning of mice was performed using step down method, in a cell with electrode floor and avoidance area. Parameters of electric stimulation for animals leaving the safety area were 50 V during 3-5 sec. The criterion of learning and memory was the staying of the animal in the area during 1 minute when testing 2 hours after training and 24 hours after training.
Learning deficit was induced by the administration of scopolamine (1.0 mg/kg, intraperitoneal) 15 minutes before the training and by reduction in the number of animal training sessions to 2 instead of 5 (undertraining).
The duration of the mnemotropic action of the compounds in conditions of learning deficit was assessed by the number of animals in a group (in percents), staying in safety zone (with immobilization).
To assess their action of different phases of memory development (fixation, consolidation and reproduction) the tested compounds were administered before the training (before scopolamine) and immediately after the training. The tested compounds were administered intraperitoneally using 2 schedules: […] and, correspondingly, 5 minutes before scopolamine, second—compounds in the same doses right after the training. Control was parallel in each series of experiments: one control group received saline solution instead of the tested compounds and scopolamine, second control group—scopolamine, using the same schedule and doses.
Statistical analysis was conducted with significance of difference from negative control at p<0.05.

Acute toxicity i/p = conditions: for Therapeutic index LD50/Min. ED: LD50 i/p / minimum effective dose in CPAR; for LD50: in vivo, intraperitoneal
[2] = dose 0.01 mg/kg i/p, scopolamine 1.0 mg/kg i/p amnesia
[3] = dose 0.1 mg/kg i/p, scopolamine 1.0 mg/kg i/p amnesia
[4] = dose 1.0 mg/kg i/p, scopolamine 1.0 mg/kg i/p amnesia
[5] = dose 10.0 mg/kg i/p, scopolamine 1.0 mg/kg i/p amnesia

Compound	Number of animals with CPAR (%) [1, 2] [%]	Number of animals with CPAR (%) [1, 3] [%]	Number of animals with CPAR (%) [1, 4] [%]	Number of animals with CPAR (%) [1, 5] [%]	effect on learning and memory during scopolamine-induced amnesia [1]	Therapeutic index LD50/Min. ED (Acute toxicity i/p)	LD50 (Acute toxicity i/p) [mg/kg]	learning ability (animals staying in safety area) after scopolamine ([1]; scopolamine 1.0 mg/kg i/p 15 minutes before training plus undertraining, average, controls about 80%) [%]	Number of animals with CPAR (%) ([1]; scopolamine alone 1.0 mg/kg i/p (amnesia control group))
CN1C(=O)C(=CNc2ccncc2)C(=O)N(C)C1=O [Compound 1, 1,3-dimethyl-5-[(4-pyridylamino)methylene]barbituric acid]	90.0	80.0	60.0	50.0	improved learning and memory	1530	15.3 ± 2.6	–	–
Nc1cc[n+](-c2nccc3c2cc([N+](=O)[O-])c(=O)n3-c2ccccc2)cc1 [Compound 2, 4-amino-1-(3-nitro-2-oxo-1-pheny-1,2-dihydro-1,6-naphthyridin-5-yl)pyridinium chloride]	60	80	70	60	improved learning and memory	10770	108 ± 14.1	–	–
CN1[C@@H]2C[C@@H](OC(=O)[C@H](CO)c3ccccc3)C[C@H]1[C@@H]1O[C@@H]12 [Scopolamine, scopolamine, reference compound]	–	–	–	–	–	–	–	28	35

— US8476433B2, “Agent exhibiting the properties of a cognitive function promoter (embodiments)” (Unikorm, priority 2010, dated 2013)
